The results in this text go back to ChEMBL document CHEMBL1142083, “Reversible inhibition of mitochondrial protein synthesis during linezolid-related hyperlactatemia” (2007).

For experiment [1], the system named is PBMC. The experiment is described as follows: Effect on mitochondrial mass in PBMCs from patient during hyperlactemic phase by V-DAC method relative to control. The experiment is classed as functional, Homo sapiens.
In experiment [2] the test system is PBMC. Description: Effect on mitochondrial mass in PBMCs from patient during hyperlactemic phase by citrate synthase method relative to control. The experiment is classed as functional, Homo sapiens.
For experiment [3], the system named is PBMC. Description: Effect on mitochondrial DNA level in PBMCs from patient on a long-term schedule of the drug with hyperlactatemia relative to control. It counts as functional, Homo sapiens.
In experiment [4] the test system is PBMC. The experiment is described as follows: Increase in Cytochrome C oxidase 2 mitochondrial RNA transcripts in PBMCs from patient on a long-term schedule of the drug with hyperlactatemia relative to control. It counts as functional, Homo sapiens.
The test system of experiment [5] is PBMC. The experiment is described as follows: Decrease in mitochondrial Cytochrome C oxidase activity in PBMCs from patient on a long-term schedule of the drug with hyperlactatemia relative to control. The arrangement: scale not given: the % may be the effect or the level left.
In experiment [6] the test system is PBMC. Description: Decrease in mitochondrial Cytochrome C oxidase 2 protein expression in PBMCs from patient on a long-term schedule of the drug with hyperlactatemia relative to control. The experiment is classed as functional, Homo sapiens. Details: scale not given: the % may be the effect or the level left.

Molecules are shown by their SMILES.

For the molecule `CC(=O)NC[C@H]1CN(c2ccc(N3CCOCC3)c(F)c2)C(=O)O1` [LINEZOLID], the Activity with PBMC [1] was 60%; with PBMC [2], 59%; with PBMC [3], 82%; in the experiment with PBMC [4], 297%; with PBMC [5] it was 51%; in the experiment with PBMC [6], 16%.
